Values joined by “and” are separate entries in the source; they are usually repeats but may differ in a detail not shown here. Equal values may be shown once. Toxic doses and inconclusive results are not listed.
System: P388 leukemia ip, CD2F1 mice, survival T/C
Assay: NCI In Vivo Anticancer Drug Screen. Data for tumor model P388 Leukemia (intraperitoneal) in CD2F1 (CDF1) mice
Settings: endpoint: median survival time, higher = longer survival
Procedure, shortened: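 Mice carrying the transplanted tumor received test compound or vehicle. Survival was recorded in each group, and the value is the treated-group measurement divided by that of the vehicle-treated control group.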

[1] = dose: 100.0 mg/kg/injection, schedule: Q01DX005 (ip), vehicle: saline with Tween-80
[2] = dose: 100.0 mg/kg/injection, schedule: Q04DX002 (ip), vehicle: saline with Tween-80
[3] = dose: 100.0 mg/kg/injection, schedule: Q04DX002 (ip), vehicle: saline
[4] = dose: 200.0 mg/kg/injection, schedule: Q04DX002 (ip), vehicle: saline
[5] = dose: 400.0 mg/kg/injection, schedule: Q01DX005 (ip), vehicle: saline with Tween-80

In the case of `CCCCNC1Cc2ccccc2CC1O` (stereo unspecified), the T/C (dose: 0.79 mg/kg/injection, schedule: Q01DX005 (ip), vehicle: saline) was 100 % of control and 107 % of control, the T/C (dose: 1.56 mg/kg/injection, schedule: Q01DX005 (ip), vehicle: saline) was 100 % of control and 104 % of control and the T/C (dose: 3.12 mg/kg/injection, schedule: Q01DX005 (ip), vehicle: saline) was 101 % of control and 105 % of control and 115 % of control. The T/C (dose: 6.25 mg/kg/injection, schedule: Q01DX005 (ip), vehicle: saline) was 100 % of control and 108 % of control and 121 % of control and the T/C (dose: 12.5 mg/kg/injection, schedule: Q01DX005 (ip), vehicle: saline) was 104 % of control.

With `O=C(Nc1nncs1)c1cccs1` the T/C (dose: 50.0 mg/kg/injection, schedule: Q04DX002 (ip), vehicle: saline with Tween-80) was 100 % of control, the T/C (dose: 50.0 mg/kg/injection, schedule: Q04DX002 (ip), vehicle: saline) was 113 % of control and the T/C [1] was 103 % of control. For the same molecule, the T/C [2] was 104 % of control and 114 % of control, the T/C [3] was 106 % of control and the T/C (dose: 200.0 mg/kg/injection, schedule: Q01DX005 (ip), vehicle: saline with Tween-80) was 101 % of control. The T/C (dose: 200.0 mg/kg/injection, schedule: Q04DX002 (ip), vehicle: saline with Tween-80) was 114 % of control, the T/C [4] was 122 % of control and the T/C [5] was 96 % of control. For the same molecule, the T/C (dose: 600.0 mg/kg/injection, schedule: Q04DX002 (ip), vehicle: saline with Tween-80) was 160 % of control and the T/C (dose: 800.0 mg/kg/injection, schedule: Q01DX005 (ip), vehicle: saline with Tween-80) was 104 % of control.

For `CSC(=S)c1c(O)ccc2ccccc12`, the T/C [2] was 102 % of control.

In the case of `O=C(c1ccc2c(c1)C(=O)NC2=O)c1ccc2c(c1)C(=O)NC2=O`, the T/C (dose: 25.0 mg/kg/injection, schedule: Q01DX009 (ip), vehicle: saline with Tween-80) was 96 % of control, the T/C (dose: 50.0 mg/kg/injection, schedule: Q01DX009 (ip), vehicle: saline with Tween-80) was 89 % of control and the T/C (dose: 100.0 mg/kg/injection, schedule: Q01DX009 (ip), vehicle: saline with Tween-80) was 86 % of control.

For `O=C1CSC(C2CCCCC2)N1c1nncs1` (stereo unspecified), the T/C (dose: 30.0 mg/kg/injection, schedule: Q01DX005 (ip), vehicle: Klucel (hydroxypropylcellulose) (HPC)) was 100 % of control, the T/C (dose: 60.0 mg/kg/injection, schedule: Q01DX005 (ip), vehicle: Klucel (hydroxypropylcellulose) (HPC)) was 100 % of control and the T/C (dose: 120.0 mg/kg/injection, schedule: Q01DX005 (ip), vehicle: Klucel (hydroxypropylcellulose) (HPC)) was 101 % of control. For the same molecule, the T/C (dose: 240.0 mg/kg/injection, schedule: Q01DX005 (ip), vehicle: Klucel (hydroxypropylcellulose) (HPC)) was 107 % of control.

`COC(=O)c1cc(Nc2ccccc2)c2ncccc2c1O` was tested, and the T/C (dose: 60.0 mg/kg/injection, schedule: Q01DX005 (ip), vehicle: saline with Tween-80) was 92 % of control, the T/C (dose: 120.0 mg/kg/injection, schedule: Q01DX005 (ip), vehicle: saline with Tween-80) was 98 % of control and the T/C (dose: 240.0 mg/kg/injection, schedule: Q01DX005 (ip), vehicle: saline with Tween-80) was 98 % of control.

In the case of `COc1c2c(c3c(c1OC)CCN(CC(c1ccccc1)c1ccccc1)C3)CCC2`, the T/C [3] was 101 % of control, the T/C [4] was 100 % of control and the T/C (dose: 400.0 mg/kg/injection, schedule: Q04DX002 (ip), vehicle: saline) was 103 % of control.

With `CCc1c(O)sc2c(c1=O)C(=NCC(C)C)CC(C)(C)N2` the T/C (dose: 50.0 mg/kg/injection, schedule: Q01DX005 (ip), vehicle: saline) was 86 % of control, the T/C (dose: 100.0 mg/kg/injection, schedule: Q01DX005 (ip), vehicle: saline) was 94 % of control and the T/C (dose: 200.0 mg/kg/injection, schedule: Q01DX005 (ip), vehicle: saline) was 97 % of control.

For `Cc1cc(C)cc(C(=O)NC(c2ccncc2)C(NC(=O)c2cc(C)cc(C)c2)c2ccncc2)c1` (stereo unspecified), the T/C (dose: 25.0 mg/kg/injection, schedule: Q01DX005 (ip), vehicle: saline with Tween-80) was 92 % of control, the T/C (dose: 50.0 mg/kg/injection, schedule: Q01DX005 (ip), vehicle: saline with Tween-80) was 90 % of control and the T/C [1] was 99 % of control. For the same molecule, the T/C [5] was 92 % of control.

In the case of `CCC1(c2ccccc2)CCCC(C(N)=O)C1=O` (stereo unspecified), the T/C (dose: 100.0 mg/kg/injection, schedule: Q01DX001 (ip), vehicle: Klucel (hydroxypropylcellulose) (HPC)) was 100 % of control, the T/C (dose: 200.0 mg/kg/injection, schedule: Q01DX001 (ip), vehicle: Klucel (hydroxypropylcellulose) (HPC)) was 99 % of control and the T/C (dose: 400.0 mg/kg/injection, schedule: Q01DX001 (ip), vehicle: Klucel (hydroxypropylcellulose) (HPC)) was 101 % of control.

`CC(C)c1ccc(C(Cc2ccccc2)N(CCO)CCO)cc1` (stereo unspecified) was tested, and the T/C (dose: 12.5 mg/kg/injection, schedule: Q01DX005 (ip), vehicle: Klucel (hydroxypropylcellulose) (HPC)) was 105 % of control, the T/C (dose: 25.0 mg/kg/injection, schedule: Q01DX005 (ip), vehicle: Klucel (hydroxypropylcellulose) (HPC)) was 104 % of control and the T/C (dose: 50.0 mg/kg/injection, schedule: Q01DX005 (ip), vehicle: Klucel (hydroxypropylcellulose) (HPC)) was 99 % of control and 91 % of control.

In the case of `C=C(C)c1c2ccccc2cc2cccc(Sc3ccccc3)c12`, the T/C (dose: 100.0 mg/kg/injection, schedule: Q04DX003 (ip), vehicle: saline with Tween-80) was 90 % of control, the T/C (dose: 200.0 mg/kg/injection, schedule: Q04DX003 (ip), vehicle: saline with Tween-80) was 90 % of control and the T/C (dose: 400.0 mg/kg/injection, schedule: Q04DX003 (ip), vehicle: saline with Tween-80) was 90 % of control.
